Laboratory results as given in patent US20250144067A1, “PERSONALIZED STARVATION THERAPY FOR CANCER” (Faeth Therapeutics, Inc., priority 2021, published 2025).
Counter-ions that a name gives are not always drawn. Like-named read-outs stand apart in the source and are kept apart here.

Legend:
[1] = tested on: NCI-H292 lung cancer cells; assay: FDA drug screening, complete media vs cholesterol-free media without statin (TABLE 1); format: cell-based, human
[2] = tested on: NCI-H292 lung cancer cells; assay: FDA drug screening, complete media vs cholesterol-free media with simvastatin (TABLE 2); format: cell-based, human
[3] = Complete minus Cholesterol-free, greater than 0 enhanced anti-cancer activity, about 0 neutral, below 0 antagonists
[4] = NCI-H292 cells in cholesterol-free media without statin
[5] = NCI-H292 cells in complete media
[6] = NCI-H292 cells, FDA library drug in cholesterol-free media with simvastatin 0.04 μM
[7] = NCI-H292 cells, FDA library drug in complete media
[8] = complete media vs cholesterol-free media + simvastatin (0.04 μM), >0 enhanced anti-cancer activity, about 0 neutral, <0 antagonist
[9] = NCI-H292 cells, FDA drug library screen, complete media
[10] = NCI-H292 cells, cholesterol-free media with simvastatin 0.04 μM, FDA drug library screen (TABLE 2)
[11] = NCI-H292 cells, complete media, FDA drug library screen (TABLE 2)
[12] = complete media minus cholesterol-free media + simvastatin (0.04 μM), >0 enhanced anti-cancer activity, about 0 neutral, <0 antagonist
[13] = Complete minus Cholesterol-free, […]
[14] = NCI-H292 cells, cholesterol-free media without statin
[15] = complete vs cholesterol-free media, greater than 0 enhanced anti-cancer activity, about 0 neutral, below 0 antagonists
[16] = NCI-H292 cells, cholesterol-free media with simvastatin 0.04 μM, cell growth value in FDA drug screen
[17] = NCI-H292 cells, complete media, cell growth value in FDA drug screen
[18] = complete media minus cholesterol-free media + simvastatin, >0 enhanced anti-cancer activity, about 0 neutral, <0 antagonist
[19] = Complete minus Cholesterol-free, >0 enhanced anti-cancer activity, about 0 neutral, <0 antagonist
[20] = NCI-H292 cells, cholesterol-free media without statin, FDA drug library screen
[21] = NCI-H292 cells, complete media, FDA drug library screen

NC(=O)[C@@H]1C[C@]2(NC(=O)NC2=O)c2cc(F)ccc2O1 [Fidarestat] showed a Cholesterol-free [1] of 1.491, a Complete [1] of 0.686 and a Difference [1] of −0.80. For the same compound, the “Cholesterol-free media + simvastatin (0.04 μM)” value [2] was 1.63, the “Complete Media” value [2] was 1.736 and the Difference [2] was 0.11.

CCc1c(Cl)c(O)c(Cl)c(O)c1C(=O)O[C@H]1[C@H](O)[C@H](OC)[C@H](OC/C2=C\C=C\C[C@H](O)/C(C)=C/[C@H](CC)[C@@H](O[C@@H]3OC(C)(C)[C@@H](OC(=O)C(C)C)[C@H](O)[C@@H]3O)/C(C)=C/C(C)=C/C[C@@H]([C@@H](C)O)OC2=O)O[C@@H]1C [Fidaxomicin] gave a Difference [1, 3] of −0.71, a Cholesterol-free [1, 4] of 1.405 and a Complete [1, 5] of 0.6951. The “Cholesterol-free media + simvastatin (0.04 μM)” value [2, 6] was 1.494, the “Complete Media” value [2, 7] was 1.227 and the Difference [2, 8] was −0.27.

With CCCCc1nc(C)c(CC(=S)N(C)C)c(=O)n1Cc1ccc(-c2ccccc2-c2nnn[nH]2)cc1 [Fimasartan] the Difference ([1]; Complete minus Cholesterol-free, greater than 0 enhanced anti-cancer activity, about 0 neutral, below 0 antagonist) was −0.08, the Cholesterol-free ([1]; NCI-H292 cells, FDA drug library screen, cholesterol-free media without statin) was 1.327 and the Complete [1, 9] was 1.249. For the same compound, the “Cholesterol-free media + simvastatin (0.04 μM)” value [2, 10] was 1.27, the “Complete Media” value [2, 11] was 1.222 and the Difference [2, 12] was −0.05.

Compound N#Cc1c(N2C[C@@H]3NCCO[C@H]3C2)c(F)cc2c(=O)c(C(=O)O)cn(C3CC3)c12 [Finafloxacin] has a Difference [1, 13] of −0.22, a Cholesterol-free [1, 14] of 1.006 and a Complete ([1]; NCI-H292 cells, complete media) of 0.7899. The “Cholesterol-free media + simvastatin (0.04 μM)” value ([2]; NCI-H292 cells, drug in cholesterol-free media with simvastatin 0.04 μM) was 1.227, the “Complete Media” value ([2]; NCI-H292 cells, drug in complete media) was 0.9973 and the Difference ([2]; complete media vs cholesterol-free media + simvastatin (0.04 μM), […]) was −0.23.

Compound CC(C)(C)NC(=O)[C@H]1CC[C@H]2[C@@H]3CC[C@H]4NC(=O)C=C[C@]4(C)[C@H]3CC[C@]12C [Finasteride] has a Cholesterol-free [1, 14] of 1.209, a Complete ([1]; NCI-H292 cells, complete media) of 0.7878 and a Difference [1, 15] of −0.42. The “Cholesterol-free media + simvastatin (0.04 μM)” value [2, 16] was 1.571, the “Complete Media” value [2, 17] was 1.636 and the Difference [2, 18] was 0.06.

In the case of CCCCCCCCc1ccc(CCC(N)(CO)CO)cc1 [Fingolimod (hydrochloride)], the Cholesterol-free [1, 14] is reported as 1.335, the Complete ([1]; NCI-H292 cells, complete media) is reported as 0.8744 and the Difference [1, 15] is reported as −0.46. For the same compound, the “Cholesterol-free media + simvastatin (0.04 μM)” value [2, 16] was 0.9867, the “Complete Media” value [2, 17] was 1.023 and the Difference [2, 18] was 0.04.

CCCCCCCCc1ccc(CCC(N)(CO)CO)cc1 [Fingolimod] showed a Difference [1, 3] of −0.48, a Cholesterol-free [1, 4] of 1.481 and a Complete [1, 5] of 0.9982. For the same compound, the “Cholesterol-free media + simvastatin (0.04 μM)” value ([2]; NCI-H292 cells, FDA drug library screen, cholesterol-free media with simvastatin 0.04 μM) was 1.233, the “Complete Media” value [2, 9] was 1.097 and the Difference [2, 8] was −0.14.

For O=C(COc1ccc(Cl)cc1)N1CCN(Cc2ccc3c(c2)OCO3)CC1 [Fipexide], the Difference [1, 19] was −0.02, the Cholesterol-free [1, 20] was 1.201 and the Complete [1, 21] was 1.177. For the same compound, the “Cholesterol-free media + simvastatin (0.04 μM)” value [2, 6] was 1.655, the “Complete Media” value [2, 7] was 1.225 and the Difference [2, 8] was −0.43.

Work on N#Cc1nn(-c2c(Cl)cc(C(F)(F)F)cc2Cl)c(N)c1[S+]([O-])C(F)(F)F (stereo not drawn) [Fipronil] yielded a Difference [1, 13] of −0.22, a Cholesterol-free [1, 14] of 1.217 and a Complete ([1]; NCI-H292 cells, complete media) of 1. For the same compound, the “Cholesterol-free media + simvastatin (0.04 μM)” value [2, 10] was 1.235, the “Complete Media” value [2, 11] was 1.184 and the Difference ([2]; complete media minus cholesterol-free media + simvastatin (0.04 μM), […]) was −0.05.

In the case of Cc1c(-c2ccccc2)oc2c(C(=O)OCCN3CCCCC3)cccc2c1=O [Flavoxate (hydrochloride)], the Difference [1, 19] is reported as 0.01, the Cholesterol-free [1, 20] is reported as 0.984 and the Complete [1, 21] is reported as 0.9957. For the same compound, the “Cholesterol-free media + simvastatin (0.04 μM)” value [2, 10] was 0.9542, the “Complete Media” value [2, 11] was 0.8849 and the Difference [2, 12] was −0.07.

Compound O=c1[nH]c2ccccc2n1CCN1CCN(c2cccc(C(F)(F)F)c2)CC1 [Flibanserin] has a Cholesterol-free [1, 14] of 1.364, a Complete ([1]; NCI-H292 cells, complete media) of 0.9648 and a Difference [1, 15] of −0.40. For the same compound, the “Cholesterol-free media + simvastatin (0.04 μM)” value [2, 16] was 1.01, the “Complete Media” value [2, 17] was 1.089 and the Difference [2, 18] was 0.08.

CCC(=O)c1c(O)cc(O)cc1O [Flopropione] gave a Difference [1, 19] of −0.07, a Cholesterol-free [1, 20] of 1.019 and a Complete [1, 21] of 0.9515. For the same compound, the “Cholesterol-free media + simvastatin (0.04 μM)” value [2, 10] was 1.103, the “Complete Media” value [2, 11] was 1.044 and the Difference [2, 12] was −0.06.
